Measured values from article PMC8608343 (PLoS ONE, 2021).
Values after ≈ are worked out from the molar mass of the structure shown.

Key:
Leishmania donovani [1] = conditions: cited from earlier work
O+ human red blood cells = experiment: Haemolytic potential; conditions: 2% haematocrit, up to 100 μg/ml
Experimental: The compounds were tested against the O^+ human red blood cells (obtained from the Malaria laboratory of WACCBIP) at a density of 2% haematocrit for their ability to lyse erythrocytes upon incubation. Here, a concentration of up to 100 μg/ml of compounds was used, and the 50% haemolytic concentration (HC50) of the compounds were determined by analysis of dose-response curves as described.

[2] = system: Leishmania donovani promastigotes; experiment: Externalization of phosphatidylserine, Annexin V-FITC / PI flow cytometry; assay type: cell-based; conditions: 2x IC50, 24 hrs; for effect on externalization of phosphatidylserine (apoptotic potential): p-value = 0.9926
Experimental: A double staining of treated/ untreated promastigotes of Leishmania donovani (2 x 10^5 cells/ml) with Annexin V-FITC and Propidium Iodide (PI) was done to determine the apoptotic and necrotic effects of the some of the established cytocidal compounds amongst the eighteen MMV compounds studied. Treatment was set at 2x IC50 concentrations of the respective test compounds against a negative control of untreated promastigote cells in a 24 hrs incubation period. The cells were then prepared using the Annexin V-FITC apoptosis detection kit following the Sigma protocol (Catalog Number: APOAF). Further treatment and analysis of cells was done as shown previously.

[3] = system: Leishmania donovani promastigotes; experiment: Morphological and mitochondrion effects by fluorescence microscopy (DAPI, MitoTracker); assay type: cell-based
Experimental: Their mitochondrial integrity were analyzed using a slightly modified DAPI and Mitotracker dye protocol as described by Amisigo and colleagues.

[4] = system: RAW 264.7 murine macrophage cell line; experiment: Cytotoxicity against mammalian RAW macrophage cell line (MTT assay); conditions: 48 hrs, 50% cytotoxic concentration
Text: Here, amphotericin B was used as a positive control and the negative control was untreated RAW cell line.

[5] = system: Leishmania donovani promastigotes; experiment: Cell cycle analysis by flow cytometry; assay type: cell-based; conditions: 2x IC50, 24 hrs, versus untreated
Experimental: The analysis was done using the protocol as designed in the Guava cell cycle reagent manual (catalog No. 4500–0220). […] Both treated and untreated Leishmania cells were incubated for 24 hrs, samples read using a flow cytometer (BD LSR Fortessa X-20 analyzer BD Biosciences), and the respective cell counts analyzed in the G0/G1, S and G2/M Phases. Data generated was further analyzed using the FlowJo V10 software.

[6] = system: Leishmania donovani amastigotes in RAW macrophage cells; experiment: Antileishmanial activity against macrophage-amastigotes (MTT assay); assay type: cell-based; conditions: for IC50: Leishmania donovani, Macrophage, amastigotes in RAW macrophages, MTT, read-out: IC50 (μg/ml) ±SD amastigote; for Therapeutic Index (TC50/IC50) amastigotes: TC50 RAW / IC50 amastigote
Experimental: The RAW macrophage cells were infected with promastigotes at a density of 1:10 ratio, respectively for 12 hrs and the non-phagocytosed promastigotes and media removed by aspiration. The RAW macrophages cells containing the internalized amastigote cells were treated with the compounds to test for their growth inhibitory potentials as previously described. The 3-(4,5-Dimethylthiazol-2-yl)-2,5-diphenyltetrazolium bromide (MTT) assay was also used to determine the parasite viability. […] was measured with a Varioskan Lux Elisa plate reader at a wavelength of 570 nm.

[7] = system: Leishmania donovani promastigotes; experiment: Growth kinetics and cytocidal/cytostatic (growth reversibility) assay; assay type: cell-based; conditions: 1 μg/ml, 120 hrs treatment, then 96 hrs in fresh media
Experimental: The compounds (at 1 μg/ml) were tested for their effects on the growth kinetic pattern against the promastigotes of L. donovani. The parasite cells (2 x 10^5 cells/ml) were incubated at 25° C in the presence of the test compounds in M199 supplemented with 10% FBS. Amphotericin B treated parasites (0–50 μg/ml) were used as the positive control while the untreated promastigotes in medium alone served as the negative control. Viable cells were counted every 24 hrs for a total of 120 hrs as indicated in previous studies.
The cytocidal/cytostatic effect of the test compounds were assessed by analyzing the treated and untreated parasites after 120 hrs of incubation. Cells were washed twice with fresh M199, resuspended in complete M199 media and incubated further for 96 hrs. The viable cells were then counted microscopically.

[8] = system: Leishmania donovani promastigotes; experiment: Antileishmanial activity against promastigotes (MTT assay); assay type: cell-based; conditions: for IC50: Leishmania donovani, 96 hrs at 25° C, MTT, mean of three experiments, read-out: IC50 (μg/ml) ±SD promastigote; for Therapeutic Index (TC50/IC50) promastigotes: TC50 RAW / IC50 promastigote
Text: Amphotericin B was used as a positive control. The 3-(4,5-Dimethylthiazol-2-yl)-2,5-diphenyltetrazolium bromide (MTT) assay was used to determine the parasite viability as previously described.

[9] = system: Leishmania donovani promastigotes; experiment: ROS generation in treated promastigotes (H2DCFDA); assay type: cell-based; conditions: 100, 50 or 25 μM, 72 hrs
Experimental: The degree of reactive oxygen species (ROS) production in treated promastigote and amastigote cells of L. donovani were assessed using the H2DCFDA (2’,7’-dichlorodihydrofluorescein diacetate) rich fluorescent dye (MAK145 Sigma-Aldrich) ROS detection kit. […] Amoxicillin was used as a positive control for pro-oxidative generation while Vitamin C was used as a positive control for anti-oxidative potential. The treated and untreated cells were then suspended in PBS, washed, and resuspended in PBS, then incubated with the ROS detection master mix for 1 hr as instructed by the protocol. The cells were analyzed for intracellular ROS generation by measuring the fluorescence intensity which is proportional to the ROS production level using the Varioskan Lux Elisa microplate reader (Thermo Fischer Scientific, USA) at a wavelength of 605 nm.

Leishmania donovani [10] = system: Leishmania donovani; parameters: method as in PMID 33268145; conditions: dosed at 50 mg/kg, mouse model of visceral leishmaniasis; cited from earlier work

SMILES	efficacy among water-soluble ferrocenylquinoline derivatives (Leishmania donovani [1])	HC50 (O+ human red blood cells) [µg/mL]	more necrotic cells compared to negative control [2]	effect on externalization of phosphatidylserine (apoptotic potential) [2]	cells with lost kinetoplast DNA and enlarged nuclear DNA ([3]; 2x IC50, 24 hrs) [%]	morphological / mitochondrial changes after 72 hrs ([3]; 2x IC50, 72 hrs)	TC50 (μg/ml) ±SD RAW [4] [µg/mL]	increase in parasites at the S phase [5] [fold]	IC50 [6] [µg/mL]	Therapeutic Index (TC50/IC50) amastigotes [6]	cytocidal/cytostatic effect upon drug withdrawal [7]	IC50 [8] [µg/mL]	Therapeutic Index (TC50/IC50) promastigotes [8]	morphological / mitochondrial changes after 24 hrs ([3]; 2x IC50, 24 hrs)	nuclear/ kinetoplast DNA degenerated ([3]; 2x IC50, 72 hrs) [%]	ROS generation effect in promastigotes [9]	parasite burden reduction (Leishmania donovani [10]) [%]
C1CCCC1.CN(CCn1cc(C2CCCC2)nn1)c1ccnc2cc(Cl)ccc12.I.[Fe] [CQFC1]	most efficacious of the molecules																
CC1COC(Cn2cncn2)(c2ccc(Oc3ccc(Cl)cc3)cc2Cl)O1 (stereo not shown) [Compound C06A, Difenoconazole, reference compound]		>100	~17%	none of the compounds showed any significant effects	60	parasite clearance in most fields	>100	1.5	4.6 ± 0.004 (≈ 11.3 µM)	21.74	cytocidal effect	0.21 ± 0.008 (≈ 0.517 µM)	476.19				
Cc1noc(C)c1COc1cccc(C(=O)N=c2[nH]cccc2C)c1 [Compound D05A]		>100	about 6.5%	none of the compounds showed any significant effects		most of the fields had total parasite clearance	>100	1.5	3.8 ± 0.03 (≈ 11.3 µM)	26.32	cytocidal effect	0.2 ± 0.02 (≈ 0.593 µM)	500	did not show any obvious abnormalities	90	anti-oxidative effect	
O=[N+]([O-])c1cn2c(n1)O[C@@H](COc1ccc(-c3ccc(F)cc3)nc1)CC2 [DNDI-0690]																	96
